Patent publication US20120251628A1, “COMPOSITIONS AND METHODS FOR TREATMENT OF CANCER” (priority 2011, published 2012)

Tests used:
[1] = test system: CT26 (mouse colon cancer); assay: DCE-MRI of tumor vascularity (Kep) in CT26 tumor mice; assay type: in vivo
Experimental: To determine whether the occurrence of central necrosis of tumors 24 hours after treatment was caused by the reduction of vascularity, DCE-MRI was used before the medication was administered and 24 hours after administration.
Inoculate CT26 (mouse colon cancer) 2×10^6 cell subcutaneously into mice on the upper parts of their thighs.
After checking the tumor size between 6 to 10 mm, acquire images through MRI.
Image Acquisition: Use a magnetic resonance imaging device (i.e., 3 Tesla Intera human clinical scanner; Philips medical systems) and a mouse coil with an inner diameter of 4 cm to get images. Acquire images before the drug is administered and those 24 hours after that for two days.
MR Pulse Sequence as follows: Dynamic Contrast enhanced MRI scan: FOV (mm)=50×35; RFOV (%)=71; Matrix scan=112; reconstruction=224; TR/TE (ms)=12/4.0; slice thickness=1 mm; slice number=11; dynamic scans=60.
i. Conduct an experiment to the subjects under anesthesia by using an inhalation anesthetic mixing 1.5% isoflurane in 100% oxygen at a flow rate of 1 L/min.
ii. Cannulate an intravenous injection line through the tail vein to inject a contrast agent.
iii. Use Gd-DTPA (Magnevist, Schering, Germany, 281 mg/kg) as a contrast agent and get pre-contrast images before injecting the contrast agent and post-contrast images after injecting it.
iv. After getting the images, inject KML001 (10 mg/kg) and Arsenic trioxide (7.5 mg/kg) intraperitoneally.
v. Get images through a dynamic scan again 24 hours after injection.
Accordingly, the groups of animals with which the DCE-MRI data was obtained are as follows: Group of animals treated with ATO: n=4, Group of animals treated with Saline: n=4 and Group of animals treated with KML001: n=6.
As the low data in MRI was mapped from each result of the DCE-MRI to the positive control group of animals treated with ATO, the negative control group of animals treated with saline and the experimental group of animals treated with KML001, Kep values important for tumor vascularity were calculated. Kep (rate constant) is the back diffusion rate constant from interstitial space to vascular space, reflecting leakage of tumor vessels, i.e., a measurement of vascularity.

[2] = test system: acute promyelocytic leukemia (APL); details: patients to which arsenic trioxide was administered; cited from earlier work

Substance: arsenic trioxide [ATO, reference compound]
- Kep values (back diffusion rate constant, tumor vascularity) ([1]; 24 hours after intraperitoneal injection vs pre-treatment, KML001 10 mg/kg, ATO 7.5 mg/kg): significantly reduced
- contrast enhancement of the tumors in the MRI ([1]; 24 hours after treatment): decreased
- patients showing therapeutic effects without acute toxicity [2]: more than 80%
